Holding throughout (experiment): microbe, parasite or virus in culture
One assay relates to C. neoformans. In kind it is cell-based, Cryptococcus neoformans. The source says: (§1) Microbial strains: Microbial strains were procured from National Culture Collection of Pathogenic Fungi (NCCPF) at the Postgraduate Institute of Medical Education & Research (PGIMER), Chandigarh and Microbial Type Culture Collection and Gene bank (MTCC) at the Institute of Microbial Technology (IMTECH), Chandigarh, India. Peptides were screened against five different strains of fungi: viz. Candida albicans (NCCPF400034), Candida glabrata (MTCC 3019), Candida parapsilosis (NCCPF 440002), Candida krusei (NCCPF 440002) and Cryptococcus neoformans (NCCPF250316), and five strains of bacteria: viz. Escherichia coli (MTCC 2961), Staphylococcus aureus (MTCC 3160), Enterococcus faecalis (MTCC 439), Streptococcus pyogenes (MTCC 442) and Pseudomonas aeruginosa (MTCC 3542).
(§2) Growth media: Antifungal susceptibility testing was carried out using standard broth microdilution assays as per the Clinical and Laboratory Standards Institute (CLSI) guidelines for fungi. RPMI 1640 (Sigma), yeast extract, peptone and dextrose (YPED, Himedia) were used as the incubation broths. The cells were diluted to a cell density of 10^3 colony forming unit (CFU/mL) and incubated at 30 °C for 48 h. Furthermore, Muller Hinton (Himedia) media was utilized for bacterial strains and antibacterial activity was evaluated per CLSI guidelines for bacteria. Bacterial cells were diluted to a cell density of 10^5 CFU/mL and incubated at 37 °C for 24 h. Amphotericin B (Himedia, India) and rifampicin (Himedia, India) were used as standard drugs for the evaluation of activity against all the fungal and bacterial strains, respectively.
(§3) The stock solutions of peptides (2 mg/mL) were prepared in DMSO. Specific amounts of peptide from stock solution were added to a 96-well microtiter plate containing 100 μL of growth media and then serially diluted two-fold. A further 100 μL of growth media containing microbial cells were added to each well and incubated at 30–37 °C for 24–48 h. The optical density (OD) was measured at 600 nm using a BioStack Ready (BioTek Instruments, Winooski, VT, USA) microplate reader to analyze microbial growth inhibition, and IC50 and MIC values were calculated. To visualize the growth and inhibition pattern, a solution of 3-(4,5-dimethylthiazol-2-yl)-2,5-diphenyltetrazolium bromide (MTT) in water was added to the plate and incubated for 2–3 h. MTT reacts with the mitochondrial dehydrogenases, which are present only in a viable cell, to give blue colored formazan crystals. Therefore, a darker color indicates a high number of viable cells; however, non-viable cells appear pale or colorless.

The next assay relates to C. albicans. In kind it is cell-based, Candida albicans. The note with it: 48 h.
Description: as §1, §2, §3

In another assay the test system is C. glabrata. In kind it is cell-based, Candida glabrata. Conditions: 48 h.
Description: as §1, §2, §3

A further assay deals with C. parapsilosis. In kind it is cell-based, Candida parapsilosis. Conditions: 48 h.
Description: as §1, §2, §3

Another assay relates to C. krusei. The format is cell-based, Candida krusei. The note with it: 48 h.
Description: as §1, §2, §3

Converted amounts (≈) assume the structure as drawn.

`COC(=O)[C@H](Cc1ncn(Cc2cc(F)cc(F)c2)c1I)NC(=O)[C@@H](N)Cc1c[nH]c2ccccc12` [10j]: the IC50 is 6.09 µg/mL (≈ 10 µM) with C. neoformans (48 h); over 35.2 µg/mL with C. albicans; over 35.2 µg/mL in the assay on C. glabrata; over 35.2 µg/mL in the assay with C. parapsilosis; over 35.2 µg/mL in the assay on C. krusei. Also, the MIC is 11.08 µg/mL (≈ 18.2 µM) with C. neoformans (48 h); over 64.0 µg/mL in the assay with C. albicans; over 64.0 µg/mL against C. glabrata; over 64.0 µg/mL against C. parapsilosis; over 64.0 µg/mL with C. krusei.

Regarding `COC(=O)[C@H](Cc1ncn(Cc2ccc(F)c(F)c2)c1I)NC(=O)[C@H](Cc1c[nH]c2ccccc12)NC(=O)OC(C)(C)C` [9i], the IC50 with C. neoformans (48 h) was 17.62 µg/mL (≈ 24.9 µM); in the assay on C. albicans, over 35.2 µg/mL; with C. glabrata it was over 35.2 µg/mL; with C. parapsilosis, over 35.2 µg/mL; with C. krusei, over 35.2 µg/mL. Further, the MIC was 32.05 µg/mL (≈ 45.3 µM) against C. neoformans (48 h); over 64.0 µg/mL in the assay on C. albicans; over 64.0 µg/mL in the assay with C. glabrata; over 64.0 µg/mL in the assay with C. parapsilosis; over 64.0 µg/mL in the assay on C. krusei.

For `COC(=O)[C@H](Cc1ncn(Cc2ccc(C(C)C)cc2)c1I)NC(=O)[C@H](Cc1c[nH]c2ccccc12)NC(=O)OC(C)(C)C` [9c], the IC50 is 20.39 µg/mL (≈ 28.6 µM) in the assay with C. neoformans (48 h); over 35.2 µg/mL in the assay on C. albicans; over 35.2 µg/mL in the assay with C. glabrata; over 35.2 µg/mL in the assay with C. parapsilosis; over 35.2 µg/mL in the assay on C. krusei. Further, the MIC was 37.08 µg/mL (≈ 52 µM) in the assay on C. neoformans (48 h); over 64.0 µg/mL against C. albicans; over 64.0 µg/mL with C. glabrata; over 64.0 µg/mL against C. parapsilosis; over 64.0 µg/mL with C. krusei.

For the compound `COC(=O)[C@H](Cc1ncn(Cc2ccccc2C(F)(F)F)c1I)NC(=O)[C@H](Cc1c[nH]c2ccccc12)NC(=O)OC(C)(C)C` [9f], the IC50 in the assay on C. neoformans (48 h) was 30.56 µg/mL (≈ 41.3 µM); with C. albicans, over 35.2 µg/mL; in the assay on C. glabrata, over 35.2 µg/mL; in the assay on C. parapsilosis, over 35.2 µg/mL; in the assay on C. krusei, over 35.2 µg/mL. The MIC in the assay on C. neoformans (48 h) is 55.57 µg/mL (≈ 75.1 µM); against C. albicans, over 64.0 µg/mL; against C. glabrata, over 64.0 µg/mL; against C. parapsilosis it was over 64.0 µg/mL; against C. krusei, over 64.0 µg/mL.

Regarding `COC(=O)[C@H](Cc1ncn(Cc2ccc(C(F)(F)F)cc2)c1I)NC(=O)[C@@H](N)Cc1c[nH]c2ccccc12` [10g], the concentration for half-maximal inhibition (IC50) is 13.53 µg/mL (≈ 21.2 µM) in the assay with C. neoformans (48 h); over 35.2 µg/mL in the assay with C. albicans; over 35.2 µg/mL with C. glabrata; over 35.2 µg/mL in the assay on C. parapsilosis; over 35.2 µg/mL with C. krusei. Moreover, the MIC in the assay with C. neoformans (C. neoformans, lowest test concentration with no detectable growth) was 24.6 µg/mL (≈ 38.5 µM); against C. albicans it was over 64.0 µg/mL; in the assay with C. glabrata, over 64.0 µg/mL; with C. parapsilosis, over 64.0 µg/mL; with C. krusei, over 64.0 µg/mL. Further, the “Fold reduction of activity” value in the assay with C. neoformans (C. neoformans, on replacing methyl of the tert-butyl moiety with fluorine) came out at 2.6 fold.

On to `COC(=O)[C@H](Cc1ncn(Cc2ccc(C(C)(C)C)cc2)c1I)NC(=O)[C@H](Cc1c[nH]c2ccccc12)NC(=O)OC(C)(C)C` [9b], for which the IC50 in the assay with C. neoformans (48 h), with C. albicans, with C. glabrata, in the assay with C. parapsilosis and in the assay on C. krusei was over 35.2 µg/mL in each case. Further, the MIC against C. neoformans (48 h), against C. albicans, against C. glabrata, against C. parapsilosis and against C. krusei was over 64.0 µg/mL each time.

In the case of `COC(=O)[C@H](Cc1ncn(Cc2cccc(Br)c2)c1I)NC(=O)[C@@H](N)Cc1c[nH]c2ccccc12` [10m], the IC50 in the assay on C. neoformans (48 h) is 9.23 µg/mL (≈ 14.2 µM); with C. albicans it was over 35.2 µg/mL; with C. glabrata it was over 35.2 µg/mL; in the assay with C. parapsilosis it was over 35.2 µg/mL; in the assay with C. krusei, over 35.2 µg/mL. Besides, the MIC is 16.79 µg/mL (≈ 25.8 µM) against C. neoformans (48 h); over 64.0 µg/mL in the assay with C. albicans; over 64.0 µg/mL against C. glabrata; over 64.0 µg/mL in the assay on C. parapsilosis; over 64.0 µg/mL against C. krusei.

Consider `COC(=O)[C@H](Cc1ncn(Cc2ccccc2)c1I)NC(=O)[C@H](Cc1c[nH]c2ccccc12)NC(=O)OC(C)(C)C` [9a], for which the IC50 was 17.78 µg/mL (≈ 26.5 µM) with C. neoformans (48 h); over 35.2 µg/mL in the assay on C. albicans; over 35.2 µg/mL with C. glabrata; over 35.2 µg/mL in the assay on C. parapsilosis; over 35.2 µg/mL in the assay on C. krusei. The MIC was 32.34 µg/mL (≈ 48.2 µM) in the assay on C. neoformans (48 h); over 64.0 µg/mL in the assay on C. albicans; over 64.0 µg/mL against C. glabrata; over 64.0 µg/mL with C. parapsilosis; over 64.0 µg/mL against C. krusei.

Regarding `COC(=O)[C@H](Cc1ncn(Cc2ccc(C(F)(F)F)cc2)c1I)NC(=O)[C@H](Cc1c[nH]c2ccccc12)NC(=O)OC(C)(C)C` [9g], the IC50 with C. neoformans (48 h), with C. albicans, in the assay with C. glabrata, in the assay on C. parapsilosis and in the assay on C. krusei was over 35.2 µg/mL each time. The MIC in the assay on C. neoformans (48 h), in the assay with C. albicans, in the assay with C. glabrata, with C. parapsilosis and in the assay on C. krusei was over 64.0 µg/mL throughout.

On to `COC(=O)[C@H](Cc1ncn(Cc2cccc(C(F)(F)F)c2)c1I)NC(=O)[C@H](Cc1c[nH]c2ccccc12)NC(=O)OC(C)(C)C` [9e], for which the IC50 in the assay on C. neoformans (48 h) is 20.71 µg/mL (≈ 28 µM); in the assay with C. albicans, over 35.2 µg/mL; with C. glabrata it was over 35.2 µg/mL; in the assay with C. parapsilosis, over 35.2 µg/mL; in the assay on C. krusei, over 35.2 µg/mL. Also, the MIC in the assay with C. neoformans (48 h) is 37.65 µg/mL (≈ 50.9 µM); against C. albicans, over 64.0 µg/mL; in the assay with C. glabrata it was over 64.0 µg/mL; in the assay on C. parapsilosis it was over 64.0 µg/mL; with C. krusei, over 64.0 µg/mL.

Regarding `COC(=O)[C@H](Cc1ncn(Cc2ccccc2C(F)(F)F)c1I)NC(=O)[C@@H](N)Cc1c[nH]c2ccccc12` [10f], the IC50 in the assay on C. neoformans (48 h) is 17.70 µg/mL (≈ 27.7 µM); in the assay with C. albicans it was over 35.2 µg/mL; in the assay on C. glabrata it was over 35.2 µg/mL; in the assay on C. parapsilosis, over 35.2 µg/mL; in the assay on C. krusei, over 35.2 µg/mL. Besides, the MIC was 32.18 µg/mL (≈ 50.3 µM) against C. neoformans (48 h); over 64.0 µg/mL with C. albicans; over 64.0 µg/mL in the assay with C. glabrata; over 64.0 µg/mL against C. parapsilosis; over 64.0 µg/mL with C. krusei.

For the compound `COC(=O)[C@H](Cc1ncn(Cc2cccc(I)c2)c1I)NC(=O)[C@H](Cc1c[nH]c2ccccc12)NC(=O)OC(C)(C)C` [9n], the IC50 in the assay with C. neoformans (48 h) is 23.58 µg/mL (≈ 29.6 µM); in the assay on C. albicans it was over 35.2 µg/mL; in the assay on C. glabrata it was over 35.2 µg/mL; with C. parapsilosis it was over 35.2 µg/mL; with C. krusei, over 35.2 µg/mL. The MIC is 42.87 µg/mL (≈ 53.8 µM) in the assay with C. neoformans (48 h); over 64.0 µg/mL in the assay on C. albicans; over 64.0 µg/mL with C. glabrata; over 64.0 µg/mL in the assay with C. parapsilosis; over 64.0 µg/mL against C. krusei.

With `COC(=O)[C@H](Cc1ncn(Cc2ccccc2)c1I)NC(=O)[C@@H](N)Cc1c[nH]c2ccccc12` [10a], the IC50 in the assay on C. neoformans (48 h) is 17.68 µg/mL (≈ 30.9 µM); with C. albicans, over 35.2 µg/mL; in the assay on C. glabrata it was over 35.2 µg/mL; in the assay on C. parapsilosis, over 35.2 µg/mL; in the assay with C. krusei it was over 35.2 µg/mL. For the same compound, the MIC in the assay on C. neoformans (48 h) was 32.15 µg/mL (≈ 56.3 µM); against C. albicans, over 64.0 µg/mL; with C. glabrata it was over 64.0 µg/mL; against C. parapsilosis it was over 64.0 µg/mL; against C. krusei, over 64.0 µg/mL.
